According to ChEMBL document CHEMBL3045401, “(Naphthalen-1-yloxy)-acetic acid benzylidene/(1-phenyl-ethylidene)-hydrazide derivatives: synthesis, antimicrobial evaluation, and QSAR studies” (Med Chem Res, 2012):
In brackets after ≈: the same amount, converted by molar mass.

Key:
Staphylococcus aureus = experiment: Antimicrobial activity against Staphylococcus aureus after 24 hr by serial dilution method; type: functional
Human betaherpesvirus 5 [1] = experiment: Antiviral activity against Human herpesvirus 5 strain AD169 infected human HEL cells assessed as reduction in the virus plaque formation; type: functional, organism-based; details: Human betaherpesvirus 5, AD169, HEL
Human alphaherpesvirus 3 [2] = experiment: Antiviral activity against thymidine kinase-deficient Human herpesvirus 3 infected in HEL cells assessed as inhibition of viral plaque formation; type: functional, organism-based; details: Human alphaherpesvirus 3, HEL
[3] = test system: Human immunodeficiency virus 1; experiment: Antiviral activity against Human immunodeficiency virus 1 IIIB infected human MT4 cells assessed as inhibition of virus-induced cytopathic effect after 4 days by MTT assay; type: functional, organism-based; details: MT4, 96 h
Aspergillus niger = experiment: Antimicrobial activity against Aspergillus niger after 7 days by serial dilution method; type: functional
Escherichia coli = experiment: Antimicrobial activity against Escherichia coli after 24 hr by serial dilution method; type: functional
[4] = Cytotoxicity against Homo sapiens (human) MT4 cells after 4 days by MTT assay; type: cell-based
[5] = Cytotoxicity against HEL; type: cell-based; details: human, HEL cells
Candida albicans = experiment: Antimicrobial activity against Candida albicans after 2 days by serial dilution method; type: functional
Bacillus subtilis = experiment: Antimicrobial activity against Bacillus subtilis after 24 hr by serial dilution method; type: functional
[6] = Cytotoxicity against HEL assessed as minimum concentration required to cause morphological changes; type: cell-based; details: human, HEL cells
Human alphaherpesvirus 3 [7] = experiment: Antiviral activity against thymidine kinase-positive Human herpesvirus 3 infected in HEL cells assessed as inhibition of viral plaque formation; type: functional, organism-based; details: Human alphaherpesvirus 3, HEL
[8] = Octanol-water partition coefficient, log P of the compound; type: physicochemical
Human betaherpesvirus 5 [9] = experiment: Antiviral activity against Human herpesvirus 5 Davis infected human HEL cells assessed as reduction in the virus plaque formation; type: functional, organism-based; details: Human betaherpesvirus 5, Davis
[10] = test system: Human immunodeficiency virus 2; experiment: Antiviral activity against Human immunodeficiency virus type 2 (ISOLATE ROD) infected human MT4 cells assessed as inhibition of virus-induced cytopathic effect after 4 days by MTT assay; type: functional, organism-based; details: Human immunodeficiency virus 2, ISOLATE ROD, MT4, 96 h

| Structure (SMILES) | -logMIC (Staphylococcus aureus) | EC50 (Human betaherpesvirus 5 [1]) [µg/mL] | EC50 (Human alphaherpesvirus 3 [2]) [µg/mL] | EC50 [3] [µg/mL] | -logMIC (Aspergillus niger) | -logMIC (Escherichia coli) | CC50 at 96 h [4] [µg/mL] | CC50 [5] [µg/mL] | -logMIC (Candida albicans) | -logMIC (Bacillus subtilis) | MCC [6] [µg/mL] | EC50 (Human alphaherpesvirus 3 [7]) [µg/mL] | logP [8] | EC50 (Human betaherpesvirus 5 [9]) [µg/mL] | EC50 [10] [µg/mL] |
| --- | --- | --- | --- | --- | --- | --- | --- | --- | --- | --- | --- | --- | --- | --- | --- |
| C/C(=N\NC(=O)COc1cccc2ccccc12)c1ccc(Br)cc1 | 0.6 | > 4 | > 4 | > 77.6 | 0.6 | 0.6 | 77.6 (≈ 195 µM) | 15.3 (≈ 38.5 µM) | 0.6 | 0.9 | 20 | > 4 | 3.61 | > 4 | > 77.6 |
| O=C(COc1cccc2ccccc12)N/N=C/C=C/c1ccccc1 | 1.12 | > 20 | > 20 | > 62.7 | 0.82 | 1.12 | 82.7 (≈ 250 µM) | 100 (≈ 303 µM) | 1.72 | 1.12 | 100 | > 20 | 4.43 | > 20 | > 62.7 |
| COc1ccc(OC)c(/C=N/NC(=O)COc2cccc3ccccc23)c1 | 1.16 | > 4 | > 20 | > 19.2 | 1.46 | 1.46 | 19.2 (≈ 52.8 µM) | 56.9 (≈ 156 µM) | 1.46 | 1.16 | ≥ 20 | > 4 | 3.51 | > 20 | > 19.2 |
| O=C(COc1cccc2ccccc12)N/N=C/c1ccc(O)cc1 | 1.71 | > 4 | 10.5 (≈ 32.8 µM) | > 26.5 | 1.11 | 1.41 | 26.5 (≈ 82.7 µM) | 60.6 (≈ 189 µM) | 1.71 | 1.11 | 20 | 9.6 (≈ 30 µM) | 3.73 | > 4 | > 26.5 |
| COc1ccc(/C=N/NC(=O)COc2cccc3ccccc23)cc1OC | 1.46 | > 4 | > 20 | > 14.6 | 1.46 | 1.46 | 14.7 (≈ 40.2 µM) | 52.6 (≈ 144 µM) | 1.46 | 1.16 | ≥ 20 | > 4 | 3.51 | > 20 | > 14.6 |
| COc1cc(/C=N/NC(=O)COc2cccc3ccccc23)cc(OC)c1OC | 1.8 | > 4 | 17.4 (≈ 44.1 µM) | > 13.4 | 1.5 | 1.5 | 13.4 (≈ 34 µM) | 47.9 (≈ 121 µM) | 1.5 | 1.5 | ≥ 20 | 12.5 (≈ 31.7 µM) | 3.26 | > 20 | > 13.4 |
| O=C(COc1cccc2ccccc12)N/N=C/c1c[nH]c2ccccc12 | 0.84 | > 20 | > 20 | > 51.5 | 0.84 | 0.84 | 51.5 (≈ 150 µM) | > 100 | 0.84 | 1.14 | 100 | > 20 | 3.79 | > 20 | > 51.5 |
| O=C(COc1cccc2ccccc12)N/N=C/c1cccc(O)c1 | 1.71 | > 20 | 16.2 (≈ 50.6 µM) | > 32.6 | 1.41 | 1.41 | 32.6 (≈ 102 µM) | 62.7 (≈ 196 µM) | 1.41 | 1.11 | 100 | 9.2 (≈ 28.7 µM) | 3.73 | > 20 | > 32.6 |
| Cc1ccc(/C=N/NC(=O)COc2cccc3ccccc23)cc1 | 1.12 | > 4 | > 20 | > 83.9 | 0.82 | 0.52 | 83.9 (≈ 263 µM) | 80.1 (≈ 252 µM) | 0.52 | 0.52 | 20 | > 20 | 4.49 | > 4 | > 83.9 |
| C/C(=N\NC(=O)COc1cccc2ccccc12)c1ccc(O)cc1 | 1.13 | > 4 | > 0.8 | > 68.8 | 1.43 | 1.43 | 68.8 (≈ 206 µM) | 11.1 (≈ 33.2 µM) | 1.43 | 1.13 | 20 | > 4 | 4.44 | > 4 | > 68.8 |
| C/C(=N\NC(=O)COc1cccc2ccccc12)c1ccccc1Br | 1.2 | > 4 | > 4 | > 79.8 | 1.5 | 1.2 | 79.8 (≈ 201 µM) | 16.2 (≈ 40.8 µM) | 1.5 | 1.2 | 20 | > 4 | 4.44 | > 4 | > 79.8 |
| COc1ccc(/C=N/NC(=O)COc2cccc3ccccc23)cc1O | 1.15 | > 20 | 20 (≈ 57.1 µM) | > 7.05 | 1.15 | 1.45 | 7.05 (≈ 20.1 µM) | 27.7 (≈ 79.1 µM) | 1.15 | 1.45 | 100 | 13.8 (≈ 39.4 µM) | 3.48 | > 20 | > 7.05 |
| O=C(COc1cccc2ccccc12)N/N=C/c1ccccc1[N+](=O)[O-] | 1.45 | > 4 | > 4 | > 12.2 | 1.45 | 1.45 | 12.2 (≈ 34.9 µM) | 100 (≈ 286 µM) | 1.45 | 1.14 | 20 | > 4 | 3.97 | > 4 | > 12.2 |
| C/C(=N\NC(=O)COc1cccc2ccccc12)c1ccccc1O | 1.13 | > 4 | 7.9 (≈ 23.6 µM) | > 11.2 | 0.82 | 1.43 | 11.2 (≈ 33.6 µM) | 4 (≈ 12 µM) | 0.82 | 0.82 | 20 | 7 (≈ 20.9 µM) | 3.08 | > 4 | > 11.2 |
